Among the data in patent publication US8796324B2, “Substituted 2-acetamido-5-aryl-1,2,4-triazolones and use thereof” (Bayer Intellectual Property GmbH, priority 2009, dated 2014) are IC50 values, retold here.

The target of one assay is T1, human V1a receptor (Homo sapiens, UniProt P37288).
T1 construct: expressed in transfected cells; host or cells: CHO K1 (constitutively expressing modified aequorin)
As to the kind of experiment: Cellular in vitro assay for determining the vasopressin receptor activity (aequorin luminescence). It is filed as cell-based. To be noted: CHO cell line transfected with the human V1a receptor; agonist [Arg8]-vasopressin; read-out: IC50 hV1a. From the text:
(§1) B-1. Cellular In Vitro Assay for Determining the Vasopressin Receptor Activity
(§2) The identification of agonists and antagonists of the V1a and V2 vasopressin receptors from humans and rats and also the quantification of the activity of the substances described here took place using recombinant cell lines. These cells derive originally from a hamster ovary epithelial cell (Chinese Hamster Ovary, CHO K1, ATCC: American Type Culture Collection, Manassas, Va. 20108, USA). The test cell lines constitutively express a modified form of the calcium-sensitive photoprotein aequorin, which, after reconstitution with the cofactor coelenterazine, emits light when there are increases in the free calcium concentration (Rizzuto R., Simpson A. W., Brini M., Pozzan T.; Nature 358 (1992) 325-327). In addition, the cells are stably transfected with the human or rat V1a or V2 receptors. In the case of the Gs-coupling V2 receptors, the cells are stably transfected with a further gene, which codes for the promiscuous Gα16 protein (Amatruda T. T., Steele D. A., Slepak V. Z., Simon M. I., Proc. Nat. Acad. Sci. USA 88 (1991), 5587-5591), either independently or as a fusion gene. The resulting vasopressin receptor test cells react to stimulation of the recombinantly expressed vasopressin receptors by intracellular release of calcium ions, which can be quantified by the resulting aequorin luminescence using a suitable luminometer (Milligan G., Marshall F., Rees S., Trends in Pharmaco. Sci. 17 (1996) 235-237).
(§3) On the day before the assay, the cells are plated out in culture medium (DMEM, 10% FCS, 2 mM glutamine, 10 mM HEPES) in 384-well microtiter plates and kept in a cell incubator (96% humidity, 5% v/v carbon dioxide, 37° C.). On the day of the assay, the culture medium is replaced by a Tyrode solution (140 mM sodium chloride, 5 mM potassium chloride, 1 mM magnesium chloride, 2 mM calcium chloride, 20 mM glucose, 20 mM HEPES), which additionally contains the cofactor coelenterazine (50 μM), and the microtiter plate is then incubated for a further 3-4 hours. The test substances in various concentrations are placed for 10 to 20 minutes in the wells of the microtiter plate before the agonist [Arg8]-vasopressin is added, and the resulting light signal is measured immediately in the luminometer. The IC50 values are calculated using the GraphPad PRISM computer program (Version 3.02).
(§4) The table below lists representative IC50 values for the compounds of the invention on the cell line transfected with the human V1a or V2 receptor: […]

For a further assay, the target named is T2, human V2 receptor (Homo sapiens, UniProt P30518).
T2 construct: expressed in transfected cells; host or cells: CHO K1 (constitutively expressing modified aequorin; co-transfected with promiscuous G-alpha-16)
T2 sequence (P30518 whole entry): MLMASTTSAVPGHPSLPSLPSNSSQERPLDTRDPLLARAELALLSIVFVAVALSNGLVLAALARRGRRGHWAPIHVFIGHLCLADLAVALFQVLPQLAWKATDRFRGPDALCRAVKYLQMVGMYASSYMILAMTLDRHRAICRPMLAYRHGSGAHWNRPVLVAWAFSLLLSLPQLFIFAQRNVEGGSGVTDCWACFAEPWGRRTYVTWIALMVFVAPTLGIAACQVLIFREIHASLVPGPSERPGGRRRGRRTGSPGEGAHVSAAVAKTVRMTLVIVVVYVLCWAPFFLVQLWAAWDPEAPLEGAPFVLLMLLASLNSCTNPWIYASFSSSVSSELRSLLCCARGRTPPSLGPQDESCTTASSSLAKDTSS
The description is as above. It is filed as cell-based. To be noted: CHO cell line transfected with the human V2 receptor (and Gα16); agonist [Arg8]-vasopressin; read-out: IC50 hV2.
From the text: as §1, §2, §3, §4

T1 sequence (P37288 whole entry): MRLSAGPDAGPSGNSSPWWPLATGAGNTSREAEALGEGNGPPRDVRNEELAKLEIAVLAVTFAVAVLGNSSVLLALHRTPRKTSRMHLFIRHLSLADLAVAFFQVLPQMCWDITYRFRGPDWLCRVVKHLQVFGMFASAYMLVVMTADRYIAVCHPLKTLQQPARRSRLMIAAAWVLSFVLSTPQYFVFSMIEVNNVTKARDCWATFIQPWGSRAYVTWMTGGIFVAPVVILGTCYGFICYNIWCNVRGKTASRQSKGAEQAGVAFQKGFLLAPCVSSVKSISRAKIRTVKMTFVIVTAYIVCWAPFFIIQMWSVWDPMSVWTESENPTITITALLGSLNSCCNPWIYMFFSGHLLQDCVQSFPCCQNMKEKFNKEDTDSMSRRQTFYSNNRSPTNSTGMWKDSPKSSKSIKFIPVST

Turning to `NC(=O)OCC(NC(=O)Cn1nc(-c2ccc(Cl)cc2)n(Cc2ccccc2F)c1=O)c1ccccc1C(F)(F)F` (single isomer, unassigned) [Example 191, 2-({[3-(4-Chlorophenyl)-4-(2-fluorobenzyl)-5-oxo-4,5-dihydro-1H-1,2,4-triazol-1-yl]acetyl}amino)-2-[2-(trifluoromethyl)phenyl]ethyl carbamate], the values for the IC50 on human V1a receptor and at human V2 receptor were 2.3 nM and 24.8 nM, respectively.
Regarding `NC(=O)OCC(NC(=O)Cn1nc(-c2ccc(Cl)cc2)n(C[C@H](O)C(F)(F)F)c1=O)c1cccc(Cl)c1Cl` (single isomer, unassigned) [Example 203], the figures for the IC50 on human V1a receptor and at human V2 receptor were 2.7 nM and 4.4 nM, respectively.
As to `O=C(Cn1nc(-c2ccc(Cl)cc2)n(C[C@H](O)C(F)(F)F)c1=O)NC(C[N+](=O)[O-])c1cccc(C(F)(F)F)c1` (single isomer, unassigned; diastereomer i) [Example 2], the IC50 was 7.6 nM at human V1a receptor and 2.6 nM at human V2 receptor.
As for `O=C(Cn1nc(-c2ccc(Cl)cc2)n(C[C@H](O)C(F)(F)F)c1=O)NC(CO)c1ccccc1C(F)(F)F` (single isomer, unassigned; diastereomer i) [Example 39], the IC50 at human V1a receptor is 1.4 nM; at human V2 receptor, 7.8 nM.
Take `NCC(NC(=O)Cn1nc(-c2ccc(Cl)cc2)n(C[C@H](O)C(F)(F)F)c1=O)c1ccccc1C(F)(F)F` (single isomer, unassigned; diastereomer ii) [Example 14]: the IC50 at human V1a receptor was 1 nM; on human V2 receptor it was 8.9 nM.
For `CS(=O)(=O)NCC(NC(=O)Cn1nc(-c2ccc(Cl)cc2)n(C[C@H](O)C(F)(F)F)c1=O)c1cccc(C(F)(F)F)c1` (single isomer, unassigned; diastereomer ii) [Example 24], the IC50 on human V1a receptor was 4.5 nM; on human V2 receptor, 1.3 nM.
For the molecule `CS(=O)(=O)NCC(NC(=O)Cn1nc(-c2ccc(Cl)cc2)n(C[C@H](O)C(F)(F)F)c1=O)c1ccccc1C(F)(F)F` (single isomer, unassigned; diastereomer ii) [Example 26], the IC50 is 0.9 nM on human V1a receptor and 3.2 nM on human V2 receptor.
For `CCS(=O)(=O)NCC(NC(=O)Cn1nc(-c2ccc(Cl)cc2)n(C[C@H](O)C(F)(F)F)c1=O)c1cccc(Cl)c1Cl` (single isomer, unassigned; diastereomer ii) [Example 34] the same measures were 3 nM and 1.5 nM.
Regarding `C[C@@](CO)(NC(=O)Cn1nc(-c2ccc(Cl)cc2)n(C[C@H](O)C(F)(F)F)c1=O)c1cccc(C(F)(F)F)c1` [Example 44, 2-{3-(4-Chlorophenyl)-5-oxo-4-[(2S)-3,3,3-trifluoro-2-hydroxypropyl]-4,5-dihydro-1H-1,2,4-triazol-1-yl}-N-{(2R)-1-hydroxy-2-[3-(trifluoromethyl)phenyl]propan-2-yl}acetamide], the IC50 at human V1a receptor was 44 nM; on human V2 receptor, 1.7 nM.
Regarding `C[C@@](COC(N)=O)(NC(=O)Cn1nc(-c2ccc(Cl)cc2)n(C[C@H](O)C(F)(F)F)c1=O)c1cccc(C(F)(F)F)c1` [Example 45, (2R)-2-[({3-(4-Chlorophenyl)-5-oxo-4-[(2S)-3,3,3-trifluoro-2-hydroxypropyl]-4,5-dihydro-1H-1,2,4-triazol-1-yl}acetyl)amino]-2-[3-(trifluoromethyl)phenyl]propyl carbamate], the figures for the IC50 at human V1a receptor and on human V2 receptor were 5.5 nM and 2.5 nM, respectively.
With `NC(=O)OCC(NC(=O)Cn1nc(-c2ccc(Cl)cc2)n(C[C@H](O)C(F)(F)F)c1=O)c1ccccc1Cl` (stereo partly drawn) [Example 53, 2-(2-Chlorophenyl)-2-[({3-(4-chlorophenyl)-5-oxo-4-[(2S)-3,3,3-trifluoro-2-hydroxypropyl]-4,5-dihydro-1H-1,2,4-triazol-1-yl}acetyl)amino]ethyl carbamate], the IC50 was determined as 1.5 nM at human V1a receptor and 4.9 nM at human V2 receptor.
As for `O=C(Cn1nc(-c2ccc(Cl)cc2)n(C[C@H](O)C(F)(F)F)c1=O)N[C@@H](CCO)c1ccccc1C(F)(F)F` [Example 69, 2-{3-(4-Chlorophenyl)-5-oxo-4-[(2S)-3,3,3-trifluoro-2-hydroxypropyl]-4,5-dihydro-1H-1,2,4-triazol-1-yl}-N-{(1S)-3-hydroxy-1-[2-(trifluoromethyl)phenyl]propyl}acetamide], the IC50 at human V1a receptor came to 1.6 nM; at human V2 receptor it was 9.7 nM.
Taken in the same sequence, the figures for `NC(=O)OCC[C@H](NC(=O)Cn1nc(-c2ccc(Cl)cc2)n(C[C@H](O)C(F)(F)F)c1=O)c1ccccc1C(F)(F)F` [Example 70, (3S)-3-[({3-(4-Chlorophenyl)-5-oxo-4-[(2S)-3,3,3-trifluoro-2-hydroxypropyl]-4,5-dihydro-1H-1,2,4-triazol-1-yl}acetyl)amino]-3-[2-(trifluoromethyl)phenyl]propyl carbamate] were 1.6 nM and 9.9 nM.
For the molecule `Cc1cccc([C@H](CO)NC(=O)Cn2nc(-c3ccc(Cl)cc3)n(C[C@H](O)C(F)(F)F)c2=O)c1C` [Example 74, 2-{3-(4-Chlorophenyl)-5-oxo-4-[(2S)-3,3,3-trifluoro-2-hydroxypropyl]-4,5-dihydro-1H-1,2,4-triazol-1-yl}-N-[(1R)-1-(2,3-dimethylphenyl)-2-hydroxyethyl]acetamide], the IC50 at human V1a receptor stood at 21.6 nM; at human V2 receptor, 2.4 nM.
Taken in the same sequence, the figures for `N#Cc1cccc([C@H](CO)NC(=O)Cn2nc(-c3ccc(Cl)cc3)n(C[C@H](O)C(F)(F)F)c2=O)c1` [Example 75, 2-{3-(4-Chlorophenyl)-5-oxo-4-[(2S)-3,3,3-trifluoro-2-hydroxypropyl]-4,5-dihydro-1H-1,2,4-triazol-1-yl}-N-[(1R)-1-(3-cyanophenyl)-2-hydroxyethyl]acetamide] were 513 nM and 59.2 nM.
For `O=C(Cn1nc(-c2ccc(Cl)cc2)n(C[C@H](O)C(F)(F)F)c1=O)NC(CC(F)(F)F)c1ccccc1` (stereo partly drawn) [Example 90, 2-{3-(4-Chlorophenyl)-5-oxo-4-[(2S)-3,3,3-trifluoro-2-hydroxypropyl]-4,5-dihydro-1H-1,2,4-triazol-1-yl}-N-(3,3,3-trifluoro-1-phenylpropyl)acetamide], the values for the IC50 on human V1a receptor and at human V2 receptor were 88.6 nM and 231 nM, respectively.
Taken in the same sequence, the figures for `O=C(Cn1nc(-c2ccc(Cl)cc2)n(C[C@H](O)C(F)(F)F)c1=O)NC(c1ccccc1)C(O)C(F)(F)F` (stereo partly drawn) [Example 94, 2-{3-(4-Chlorophenyl)-5-oxo-4-[(2S)-3,3,3-trifluoro-2-hydroxypropyl]-4,5-dihydro-1H-1,2,4-triazol-1-yl}-N-(3,3,3-trifluoro-2-hydroxy-1-phenylpropyl)acetamide] were 251 nM and 72.3 nM.
As to `O=C(Cn1nc(-c2ccc(Cl)cc2)n(C[C@H](O)C(F)(F)F)c1=O)NC(CO)c1cccc(F)c1F` (stereo partly drawn) [Example 95, 2-{3-(4-Chlorophenyl)-5-oxo-4-[(2S)-3,3,3-trifluoro-2-hydroxypropyl]-4,5-dihydro-1H-1,2,4-triazol-1-yl}-N-[1-(2,3-difluorophenyl)-2-hydroxyethyl]acetamide], the figures for the IC50 at human V1a receptor and at human V2 receptor were 57.3 nM and 19.2 nM, respectively.
Taken in the same sequence, the figures for `O=C(Cn1nc(-c2ccc(Cl)cc2)n(C[C@H](O)C(F)(F)F)c1=O)NC(CO)c1cccc(C(F)F)c1` (stereo partly drawn) [Example 157, 2-{3-(4-Chlorophenyl)-5-oxo-4-[(2S)-3,3,3-trifluoro-2-hydroxypropyl]-4,5-dihydro-1H-1,2,4-triazol-1-yl}-N-{1-[3-(difluoromethyl)phenyl]-2-hydroxyethyl}acetamide] were 12.4 nM and 5.1 nM.
For `NS(=O)(=O)OCC(NC(=O)Cn1nc(-c2ccc(Cl)cc2)n(C[C@H](O)C(F)(F)F)c1=O)c1cccc(C(F)(F)F)c1` (stereo partly drawn) [Example 159, 2-[({3-(4-Chlorophenyl)-5-oxo-4-[(2S)-3,3,3-trifluoro-2-hydroxypropyl]-4,5-dihydro-1H-1,2,4-triazol-1-yl}acetyl)amino]-2-[3-(trifluoromethyl)phenyl]ethyl sulphamate] the same measures were 4.3 nM and 1.8 nM.
With `CN(C(=O)Cn1nc(-c2ccc(Cl)cc2)n(C[C@H](O)C(F)(F)F)c1=O)C(CO)c1cccc(C(F)(F)F)c1` (stereo partly drawn) [Example 163, 2-{3-(4-Chlorophenyl)-5-oxo-4-[(2S)-3,3,3-trifluoro-2-hydroxypropyl]-4,5-dihydro-1H-1,2,4-triazol-1-yl}-N-{2-hydroxy-1-[3-(trifluoromethyl)phenyl]ethyl}-N-methylacetamide], the values for the IC50 at human V1a receptor and on human V2 receptor were 594 nM and 7.7 nM, respectively.
